Consider two molecules from ChEMBL document CHEMBL3638931, “Histone deacetylase inhibitors, process for preparation and uses thereof” (2014).

One may read the IC50 as the concentration needed to halve the response being measured.

This assay has as its target T1, Protein deacetylase HDAC6 (Homo sapiens, UniProt Q9UBN7).
T1 sequence (Q9UBN7 whole entry): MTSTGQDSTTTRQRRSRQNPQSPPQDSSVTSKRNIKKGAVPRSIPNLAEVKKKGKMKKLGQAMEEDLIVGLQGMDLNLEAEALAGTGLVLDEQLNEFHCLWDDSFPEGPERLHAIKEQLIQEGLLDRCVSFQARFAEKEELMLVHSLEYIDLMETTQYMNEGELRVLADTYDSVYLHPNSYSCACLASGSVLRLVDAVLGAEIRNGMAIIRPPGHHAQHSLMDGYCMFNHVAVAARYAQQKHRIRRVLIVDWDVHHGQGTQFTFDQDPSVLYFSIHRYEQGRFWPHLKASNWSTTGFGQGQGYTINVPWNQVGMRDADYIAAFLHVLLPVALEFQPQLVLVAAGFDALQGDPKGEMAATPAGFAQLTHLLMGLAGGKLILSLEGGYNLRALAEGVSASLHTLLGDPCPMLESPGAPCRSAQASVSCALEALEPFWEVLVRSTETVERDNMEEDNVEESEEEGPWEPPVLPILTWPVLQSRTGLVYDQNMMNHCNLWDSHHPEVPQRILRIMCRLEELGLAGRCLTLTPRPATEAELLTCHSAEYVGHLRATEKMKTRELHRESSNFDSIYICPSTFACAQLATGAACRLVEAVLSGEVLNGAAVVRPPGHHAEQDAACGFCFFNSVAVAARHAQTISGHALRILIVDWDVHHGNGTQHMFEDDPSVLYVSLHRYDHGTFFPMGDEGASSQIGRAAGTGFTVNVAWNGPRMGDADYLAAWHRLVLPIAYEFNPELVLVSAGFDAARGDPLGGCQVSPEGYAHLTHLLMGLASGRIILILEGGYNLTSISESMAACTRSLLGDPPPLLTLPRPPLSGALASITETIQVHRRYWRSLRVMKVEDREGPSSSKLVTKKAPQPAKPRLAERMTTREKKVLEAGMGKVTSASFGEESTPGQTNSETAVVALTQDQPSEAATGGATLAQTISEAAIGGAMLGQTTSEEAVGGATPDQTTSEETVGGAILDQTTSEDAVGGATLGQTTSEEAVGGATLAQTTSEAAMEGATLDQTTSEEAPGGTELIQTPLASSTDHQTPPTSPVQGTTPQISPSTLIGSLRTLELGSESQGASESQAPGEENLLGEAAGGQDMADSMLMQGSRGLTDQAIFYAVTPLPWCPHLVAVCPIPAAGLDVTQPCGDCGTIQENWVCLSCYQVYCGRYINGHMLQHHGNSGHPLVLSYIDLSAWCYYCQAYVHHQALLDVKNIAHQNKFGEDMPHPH
Kind of assay: BIOMOL Fluorescent-Based HDAC Assay: The BIOMOL fluorescent-based HDAC activity assay has been applied in In vitro HDACi assay for determination of IC50 values of the compounds of this invention. The assay has been carried out in white 96 well formats according to the BIOMOL's method. In order to optimize the experiment conditions and optinal, the exact concentration range of the Deacetylated Standard (biomol, KI-142) that will vary depending on the flurimeter model, the gain setting and the exact excitation and emission wavelengths used. We recommend diluting some of the standard to a relatively low concentration with Assay Buffer (an appropriate series of Deacetylated Standard dilutions from 20 uM to 0.3125 uM), and Assay Buffer as a time zero to a set of wells on the microtiter plate. Experimental to samples (five dilute groups: 100 uM, 20 uM, 4 uM, 0.8 uM, 0.16 uM) should be compared to a time zero.

On to `CCN(CC)CCSc1ccc(/C=C/C(=O)NO)cc1NS(=O)(=O)c1ccc(C)cc1`, for which the IC50 was found to be 247 nM.
In turn, `CCN(CC)CCSc1ccc(/C=C/C(=O)NO)cc1NC(=O)C(Cl)Cl` showed an IC50 of 313 nM.
